Patent US8436043B2 (Takeda Pharmaceutical Company Limited, priority 2008, dated 2013)

biological target: T1, human glucagon receptor (Homo sapiens, UniProt P47871); test: Glucagon binding inhibitory activity ([125I]-glucagon binding to glucagon receptor membrane protein); details: test compound 10 μM; 0.4% DMSO = 0%, non-labeled glucagon 1 μM = 100%
T1 construct: made in house; host or cells: FreeStyle CHO cells, transient transfection with pMSRαneo/hGCGR; membrane fraction (35,000 rpm pellet)
Procedure: The glucagon binding inhibitory action of the compound of the present invention was evaluated by the following method.
(1) Cloning of Human Glucagon Receptor Gene
Human glucagon receptor gene was cloned by PCR reaction using human pancreas Marathon-ready cDNA (Clontech) as a template and the following primer set.
PCR reaction was performed using Advantage 2 polymerase (Clontech) and according to the attached protocol. The obtained PCR product was electrophoresed on an agarose gel (1%). An about 1.4 kb of DNA fragment containing a glucagon receptor gene was recovered from the gel and digested with restriction enzymes EcoRI and NotI. DNA treated with the restriction enzymes was electrophoresed on an agarose gel (1%). An about 1.4 kb of DNA fragment was recovered and ligated to plasmid pMSRαneo digested with restriction enzymes EcoRI and NotI to construct a human-type glucagon receptor expression plasmid DNA “pMSRαneo/hGCGR”.
(2) Preparation of Glucagon Receptor Membrane Protein
A human-type glucagon receptor was expressed using FreeStyle CHO Expression System (Invitrogen). A transient expression in FreeStyle CHO cell was performed using a human-type glucagon receptor expression plasmid DNA “pMSRαneo/hGCGR” and according to the manual attached to the FreeStyle CHO Expression System. The above-mentioned DNA was transfected and the cultured with shaking for 2 days (37° C., 8% CO2, 125 rpm). 2400 ml of culture medium was centrifuged at 2,000 rpm for 10 min and the cells were collected. The collected cells were washed with PBS, suspended in homogenate buffer [10 mM NaHCO3 (pH 7.4), 1 mM EDTA, Complete EDTA-free (Roche, 1 tablet/50 ml)] and disrupted by polytron cell disrupter (Kinematica AG). Disruption solution was centrifuged at 2,000 rpm for 10 min and the supernatant was collected.
(3) Measurement of Glucagon Binding Inhibitory Activity
The plate was stood for 90 min at room temperature. The reaction solution was transferred from the reaction plate to a 96 well unifilter GF/C plate (Perkin Elmer Inc.) using a cell harvester (Perkin Elmer Inc.) and the membrane fraction was collected on the filter by suction. The filter was presoaked in 2 mg/ml of polyethyleneimine to prevent non-specific adsorption of labeled ligand. The filter was washed 4 times with a reaction buffer and dried for 2 hr at 42° C. To each well was added 25 μl of scintillator (MicroScint0; Perkin Elmer Inc.), and the fluorescence amount was measured using a microplate scintillation counter (TopCount NXT™; Perkin Elmer Inc.).
In addition, the inhibitory rate (%) of the well added with the test compound (10 μM; containing 0.4% DMSO) was calculated, using the reaction rate of the well added only with 0.4% DMSO as 0% inhibitory rate, and the reaction rate of the well added with non-labeled glucagon (final concentration 1 μM) as 100% inhibitory rate.

T1 sequence (P47871 26-477): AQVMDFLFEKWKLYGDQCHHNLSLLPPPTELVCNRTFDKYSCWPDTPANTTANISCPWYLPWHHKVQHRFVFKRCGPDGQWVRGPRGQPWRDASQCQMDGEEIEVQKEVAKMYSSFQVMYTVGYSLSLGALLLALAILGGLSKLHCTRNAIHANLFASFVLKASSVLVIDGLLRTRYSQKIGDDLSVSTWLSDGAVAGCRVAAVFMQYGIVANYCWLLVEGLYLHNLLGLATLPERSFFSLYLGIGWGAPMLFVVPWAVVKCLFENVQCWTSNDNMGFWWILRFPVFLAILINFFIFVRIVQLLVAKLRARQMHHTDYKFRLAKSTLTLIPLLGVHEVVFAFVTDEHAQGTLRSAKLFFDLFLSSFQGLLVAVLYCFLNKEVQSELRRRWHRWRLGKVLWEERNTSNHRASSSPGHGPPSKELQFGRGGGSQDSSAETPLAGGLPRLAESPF

| SMILES | inhibitory rate (%) at 10 μM |
| --- | --- |
| COc1ccc2oc(C(Nc3ccc(C(=O)N(C)CCC(=O)O)cc3)C3CCCCC3)c(C)c2c1 (stereo not shown) [Example A44, 3-{[(4-{[cyclohexyl(5-methoxy-3-methyl-1-benzofuran-2-yl)methyl]amino}phenyl)carbonyl](methyl)amino}propanoic acid] | 82% |
| Cc1c(C(Nc2ccc(C(=O)N(C)CCC(=O)O)cc2)C2CCCC2)sc2ccccc12 (stereo not shown) [Example A65, 3-{[(4-{[cyclopentyl(3-methyl-1-benzothiophen-2-yl)methyl]amino}phenyl)carbonyl](methyl)amino}propanoic acid] | 79% |

same assay, conditions: test compound 10 μM; 0.4% DMSO = 0%, non-labeled glucagon 1 μM = 100%; read-out: inhibitory rate (%) at 10 μM

| SMILES | inhibition at 10 µM |
| --- | --- |
| Cc1c(C(Nc2ccc(C(=O)NCCC(=O)O)cc2)C2CCCC2)oc2ccc(F)cc12 (stereo not shown) [Example A190, 3-{[(4-{[cyclopentyl(5-fluoro-3-methyl-1-benzofuran-2-yl)methyl]amino}phenyl)carbonyl]amino}propanoic acid] | 86% |
| COc1ccc2oc(C(Nc3ccc(C(=O)NCCC(=O)O)cc3)C3CCCCC3)c(C)c2c1 (stereo not shown) [Example A30, 3-{[(4-{[cyclohexyl(5-methoxy-3-methyl-1-benzofuran-2-yl)methyl]amino}phenyl)carbonyl]amino}propanoic acid] | 76% |
| CSCCOc1ccc2oc(C(Nc3ccc(C(=O)NCCC(=O)O)cc3)C3CCCCC3)c(C)c2c1 (stereo not shown) [Example A148, 3-[({4-[(cyclohexyl{3-methyl-5-[2-(methylthio)ethoxy]-1-benzofuran-2-yl}methyl)amino]phenyl}carbonyl)amino]propanoic acid] | 94% |
| Cc1c(C(Nc2ccc(C(=O)N(C)CCC(=O)O)cc2)C2CCCCC2)oc2ccc(OCc3cccnc3)cc12 (stereo not shown) [Example A156, 3-[{[4-({cyclohexyl[3-methyl-5-(pyridin-3-ylmethoxy)-1-benzofuran-2-yl]methyl}amino)phenyl]carbonyl}(methyl)amino]propanoic acid] | 80% |
| CCC(CC)C(Nc1ccc(C(=O)N(C)CCC(=O)O)cc1)c1oc2ccc(F)cc2c1C (stereo not shown) [Example A72, 3-{[(4-{[2-ethyl-1-(5-fluoro-3-methyl-1-benzofuran-2-yl)butyl]amino}phenyl)carbonyl](methyl)amino}propanoic acid] | 79% |
| Cc1nn(-c2ccc(C(F)(F)F)cn2)cc1C(Nc1ccc(C(=O)NCCC(=O)O)cc1)C1CCCCC1 (stereo not shown) [Example 1, 3-[({4-[(Cyclohexyl{3-methyl-1-[5-(trifluormethyl)pyridin-2-yl]-1H-pyrazol-4-yl}methyl)amino]phenyl}carbonyl)amino]propanoic acid] | 73% |
| Cc1c(C(Nc2ccc(C(=O)N(C)CCC(=O)O)cc2)C(C)C)oc2ccc(OC3CCOCC3)cc12 (stereo not shown) [Example A180, 3-(methyl{[4-({2-methyl-1-[3-methyl-5-(tetrahydro-2H-pyran-4-yloxy)-1-benzofuran-2-yl]propyl}amino)phenyl]carbonyl}amino)propanoic acid] | 83% |
| CN(CCC(=O)O)C(=O)c1ccc(NC(c2cn(-c3ccc(C(F)(F)F)cn3)nc2CCc2ccccc2)C2CCCCC2)cc1 (stereo not shown) [Example 12, 3-[({4-[(cyclohexyl{3-(2-phenylethyl)-1-[5-(trifluoromethyl)pyridin-2-yl]-1H-pyrazol-4-yl}methyl)amino]phenyl}carbonyl)(methyl)amino]propanoic acid] | 74% |
| CCc1nn(-c2ccc(C(F)(F)F)cn2)cc1C(Nc1ccc(C(=O)N(C)CCC(=O)O)cc1)C1CCCCC1 (stereo not shown) [Example 4, 3-[({4-[(cyclohexyl{3-ethyl-1-[5-(trifluoromethyl)pyridin-2-yl]-1H-pyrazol-4-yl}methyl)amino]phenyl}carbonyl)(methyl)amino]propanoic acid] | 77% |
| COc1ccc(-n2cc(C(CC(C)C)Nc3ccc(C(=O)NCCC(=O)O)cc3)c(C3CC3)n2)cc1 (stereo not shown) [Example 44, 3-({[4-({1-[3-cyclopropyl-1-(4-methoxyphenyl)-1H-pyrazol-4-yl]-3-methylbutyl}amino)phenyl]carbonyl}amino)propanoic acid] | 69% |
| Cc1c(C(CC(C)C)Nc2ccc(C(=O)NCCC(=O)O)cc2)sc2ccccc12 (stereo not shown) [Example A33, 3-{[(4-{[3-methyl-1-(3-methyl-1-benzothiophen-2-yl)butyl]amino}phenyl)carbonyl]amino}propanoic acid] | 76% |
| Cc1c(C(Nc2ccc(C(=O)N(C)CCC(=O)O)cc2)C2CCCCC2)oc2ccc(OCC3(C)COC3)cc12 (stereo not shown) [Example A196, 3-[({4-[(cyclohexyl{3-methyl-5-[(3-methyloxetan-3-yl)methoxy]-1-benzofuran-2-yl}methyl)amino]phenyl}carbonyl)(methyl)amino]propanoic acid] | 87% |
| COCCCCC(Nc1ccc(C(=O)N(C)CCC(=O)O)cc1)c1oc2ccc(OC)cc2c1C (stereo not shown) [Example A124, 3-{[(4-{[5-methoxy-1-(5-methoxy-3-methyl-1-benzofuran-2-yl)pentyl]amino}phenyl)carbonyl](methyl)amino}propanoic acid] | 51% |
| CSCCOc1ccc2oc(C(Nc3ccc(C(=O)N(C)CCC(=O)O)cc3)C3CCCCC3)c(C)c2c1 (stereo not shown) [Example A147, 3-[({4-[(cyclohexyl{3-methyl-5-[2-(methylthio)ethoxy]-1-benzofuran-2-yl}methyl)amino]phenyl}carbonyl)(methyl)amino]propanoic acid] | 99% |
| COCc1nn(-c2cccc(C(F)(F)F)n2)cc1C(Nc1ccc(C(=O)N(C)CCC(=O)O)cc1)C1CCCCC1 (stereo not shown) [Example 90, 3-[({4-[(cyclohexyl{3-(methoxymethyl)-1-[6-(trifluoromethyl)pyridin-2-yl]-1H-pyrazol-4-yl}methyl)amino]phenyl}carbonyl)(methyl)amino]propanoic acid] | 66% |
| Cc1c(C(Nc2ccc(C(=O)N(C)CCC(=O)O)cc2)C2CCCC2)oc2c(F)cc(F)cc12 (stereo not shown) [Example A208, 3-{[(4-{[cyclopentyl(5,7-difluoro-3-methyl-1-benzofuran-2-yl)methyl]amino}phenyl)carbonyl](methyl)amino}propanoic acid] | 83% |
| CCc1nn(-c2ccc(OC)cc2)cc1C(Nc1ccc(C(=O)NCCC(=O)O)cc1)C1CCCCC1 (stereo not shown) [Example 50, 3-({[4-({cyclohexyl[3-ethyl-1-(4-methoxyphenyl)-1H-pyrazol-4-yl]methyl}amino)phenyl]carbonyl}amino)propanoic acid] | 68% |
| Cc1c(C(Nc2ccc(C(=O)N(C)CCC(=O)O)cc2)C2CCCCC2)oc2ccc(N3CCOCC3)cc12 (stereo not shown) [Example A186, 3-[{[4-({cyclohexyl[3-methyl-5-(morpholin-4-yl)-1-benzofuran-2-yl]methyl}amino)phenyl]carbonyl}(methyl)amino]propanoic acid] | 85% |
| Cc1c(C(Nc2ccc(C(=O)N(C)CCC(=O)O)cc2)C2CCCCC2)oc2ccc(Cl)nc12 (stereo not shown) [Example A128, 3-{[(4-{[(5-chloro-3-methylfuro[3,2-b]pyridin-2-yl)(cyclohexyl)methyl]amino}phenyl)carbonyl](methyl)amino}-propanoic acid] | 83% |
| COCc1nn(-c2cccc(OC)c2)cc1C(Nc1ccc(C(=O)N(C)CCC(=O)O)cc1)C1CCCCC1 (stereo not shown) [Example 76] | 68% |
| COc1ccccc1-n1cc(C)c(C(Nc2ccc(C(=O)N(C)CCC(=O)O)cc2)C2CCCCC2)n1 (stereo not shown) [Example 77, 3-[{[4-({cyclohexyl[1-(2-methoxyphenyl)-4-methyl-1H-pyrazol-3-yl]methyl}amino)phenyl]carbonyl}(methyl)amino]propanoic acid] | 55% |
| Cc1c(C(Nc2ccc(C(=O)N(C)CCC(=O)O)cc2)C2CCCCC2)oc2cccnc12 (stereo not shown) [Example A113, 3-{[(4-{[cyclohexyl(3-methylfuro[3,2-b]pyridin-2-yl)methyl]amino}phenyl)carbonyl](methyl)amino}propanoic acid] | 68% |
| Cc1sc2ccccc2c1C(Nc1ccc(C(=O)NCCC(=O)O)cc1)C1CCCCC1 (stereo not shown) [Example A8, 3-{[(4-{[cyclohexyl(2-methyl-1-benzothiophen-3-yl)methyl]amino}phenyl)carbonyl]amino}propanoic acid] | 78% |
